Laboratory results reported in patent US8648205B2, “Metal complexes of N-heterocyclic carbenes” (The University of Akron, priority 2003, dated 2014).
“And” between values parts separate entries of the source, which are not always exact repeats. Identical values can stand only once. “Also recorded” adds a separate entry of the source. Like-named read-outs stand apart in the source and are kept apart here. Values belong to the molecule of their own block, whether it stands above or below them.

What was measured:
[1] = tested on: P. aeruginosa (ATCC 9027); assay: MIC test in LB broth comparing AgNO3 and complex 106; type: cell-based; parameters: key: +=growth; −=no growth
[2] = stability (air, light, water, chloride, storage)
[3] = tested on: E. coli (ATCC 8739); assay: MIC test in LB broth comparing AgNO3 and complex 106; type: cell-based; parameters: key: +=growth; −=no growth
[4] = tested on: E. coli, P. aeruginosa, S. aureus; assay: MIC test in aqueous LB broth, summary of Table 5; type: cell-based
[5] = tested on: S. aureus (ATCC 6538); assay: MIC test in LB broth comparing AgNO3 and complex 106; type: cell-based; parameters: key: +=growth; −=no growth
[6] = solubility; conditions: 37: bromide salt; 20a, 20b: bromide salts
[7] = tested on: Escherichia coli; type: cell-based
Description: (§1) In this test, a filter paper disc of 6 mm diameter was soaked with 20 μL of a silver compound of known concentration, and placed over a lawn of an organism in the agar plate. The diameter of the area in which growth of the organism is inhibited by the test solution was measured after an over night incubation as a measure of the relative antimicrobial activity of the silver compounds. The test organisms were Escherichia coli, Staphylococcus aureus, and Pseudomonas aeruginosa.

[8] = tested on: Pseudomonas aeruginosa; type: cell-based
Description: as §1

[9] = tested on: Staphylococcus aureus; type: cell-based
Description: as §1

[10] = tested on: Escherichia coli, Staphylococcus aureus, and Pseudomonas aeruginosa; assay: agar plates overlay method, summary of Table 2; type: cell-based
Description: as §1, with “The usefulness of the compounds represented by Formulas 103 and 55 as antimicrobial agents was evaluated. In” for “In”

[11] = tested on: Escherichia coli, Staphylococcus aureus, and Pseudomonas aeruginosa; conditions: supernatants, less silver chloride
[12] = tested on: rats; assay: Toxicity studies with rats, clearance by mass spectroscopy of the urine; type: in vivo
[13] = tested on: S. aureus, P. aeruginosa, and E. coli; assay: filter disk test and standard MIC technique; type: cell-based
[14] = LD50 in rats, preliminary studies; conditions: rat, in vivo, imidazolium cation portion
Source text: The imidazolium salt 1,3,9-trimethyl-7-(2,3-dihyroxypropyl)xanthinium iodide represented by Formula 201 is obtained by reacting 7-(2,3-dihydroxypropyl)theophylline (Formula 200) with methyl iodide in dimethylformamide. The imidazolium salt represented by Formula 201 reacts with silver acetate in methanol to yield the N-heterocyclic carbene silver(I) acetate complex (Formula 202), which is a white solid in 34% yield (structure confirmed by X-ray crystallography). The compound represented by Formula 202 is water soluble (Ksp=82 mg/mL) and is stable for at least 7 days in water by NMR. As the compound represented by Formula 202 decomposes to release Ag^+ thereby regenerating the cationic portion of the compound of Formula 201. The imidazolium cation portion of the compound represented by Formula 201 has an LD50 in rats of >2.0 g/kg in preliminary studies.

[15] = physchem; conditions: water
[16] = tested on: bladder carcinoma-derived T24 epithelial cell line (ATCC HTB-4); assay: In vitro toxicity, propidium iodide flow cytometry; type: cell-based
Description: A prerequisite for a topical biocide is that it confers acceptable toxicity to the tissue(s) of interest. In vitro toxicity of the compound represented by Formula 202 has been studied using the bladder carcinoma-derived T24 epithelial cell line (ATCC HTB-4). T24 cells were grown in RPMI 1640 medium available from Life Technologies (Carlsbad, Calif.) supplemented with 10% fetal bovine serum available from Sigma (St. Louis, Mo.), seeded into 24-well plates, and grown to confluence over 48 hours. Cells were washed with sterile phosphate buffered saline (PBS) and fresh warmed medium was added, either alone or containing the compound represented by Formula 202 (added to the medium at the start of the experiment to minimize premature liberation of Ag^+ from the compound represented by Formula 202) at concentrations between 5 and 50 μg/mL. After incubation for 1 to 2 hours, cells were released by treatment with 0.05% trypsin-0.02% EDTA, suspended in sorting buffer, stained with propidium iodide, and subjected to flow cytometry on a FACS Calibur instrument available from Becton Dickinson (Piscataway, N.J.).

[17] = tested on: panel of E. coli; assay: MIC for a panel of E. coli (UTI strains), 96-well plate; conditions: Escherichia coli, 16 h
[18] = tested on: Pseudomonas aeruginosa
[19] = tested on: Escherichia coli
[20] = tested on: Staphylococcus aureus; conditions: Day 1
[21] = Day 1, 1DF: AgNO3 1731.18, 106 1675.74 μg/mL
[22] = Day 1, 2DF: AgNO3 865.59, 106 837.87 μg/mL
[23] = Day 1, 3DF: AgNO3 432.79, 106 418.94 μg/mL
[24] = Day 1, 4DF: AgNO3 216.40, 106 209.47 μg/mL
[25] = Day 1, undiluted: AgNO3 0.50 wt/V % (3462.35 μg/mL), 106 1.38 wt/V % (3341.48 μg/mL)
[26] = Day 2, 1DF: AgNO3 1731.18, 106 1675.74 μg/mL
[27] = Day 2, 2DF: AgNO3 865.59, 106 837.87 μg/mL
[28] = Day 2, 3DF: AgNO3 432.79, 106 418.94 μg/mL
[29] = Day 2, 4DF: AgNO3 216.40, 106 209.47 μg/mL
[30] = Day 2, undiluted: AgNO3 0.50 wt/V % (3462.35 μg/mL), 106 1.38 wt/V % (3341.48 μg/mL)
[31] = 0.5% solution, 20 μL on 6 mm filter paper disc, over night
[32] = Day 1, supernatant undiluted (Ag: 103 1186, 105 1125, AgN03 3176)
[33] = Day 2, supernatant undiluted (Ag: 103 1186, 105 1125, AgN03 3176)

Molecule: OC1(O)CN2C=CN3Cc4cccc(n4)CN4C=CN(C1)[CH]4[Ag+][CH]1N4C=CN1CC(O)(O)CN1C=CN(Cc5cccc(n5)C4)[CH]1[Ag][CH]32 [Complex 106]
- growth / no growth [1, 21]: −
- growth / no growth [1, 22]: −
- growth / no growth [1, 23]: −
- growth / no growth [1, 24]: −
- growth / no growth [1, 25]: −
- growth / no growth [1, 26]: −
- growth / no growth [1, 27]: −
- growth / no growth [1, 28]: +
- growth / no growth [1, 29]: +
- growth / no growth [1, 30]: −
- stability in air and light [2]: air and light stable
- stability in water ([2]; 37: bromide salt, 20a, 20b: bromide salts): quick decomposition
- growth / no growth [3, 21]: −
- growth / no growth [3, 22]: −
- growth / no growth [3, 23]: −
- growth / no growth [3, 24]: −
- growth / no growth [3, 25]: −
- growth / no growth [3, 26]: −
- growth / no growth [3, 27]: −
- growth / no growth [3, 28]: +
- growth / no growth [3, 29]: +
- growth / no growth [3, 30]: −
- antimicrobial activity of the aqueous form, fold less effective than 0.5% AgNO3 ([4]; about the same amount of silver): 2 fold
- MIC ([4]; after 48 hrs of incubation, read-out: MIC concentration): 838 µg/mL
- growth / no growth [5, 21]: −
- growth / no growth [5, 22]: −
- growth / no growth [5, 23]: −
- growth / no growth [5, 24]: −
- growth / no growth [5, 25]: −
- growth / no growth [5, 26]: −
- growth / no growth [5, 27]: −
- growth / no growth [5, 28]: +
- growth / no growth [5, 29]: +
- growth / no growth [5, 30]: −
- solubility in water / aqueous media [6]: sparingly soluble in water

Molecule: OCCN1C=CN(Cc2cccc(CN3C=CN(CCO)C3)n2)C1 [Compound 101]
- Diameter of Inhibited Area [7, 31]: 6 mm
- Diameter of Inhibited Area [8, 31]: 6 mm
- Diameter of Inhibited Area [9, 31]: 6 mm
- antimicrobial properties (Table 2 summary) [10]: no antimicrobial activity

Molecule: OCCCN1C=CN(Cc2cccc(CN3C=CN(CCCO)C3)n2)C1 [Compound 102]
- Diameter of Inhibited Area [7, 31]: 6 mm
- Diameter of Inhibited Area [8, 31]: 6 mm
- Diameter of Inhibited Area [9, 31]: 6 mm
- antimicrobial properties (Table 2 summary) [10]: no antimicrobial activity

Molecule: F[P-](F)(F)(F)(F)F.F[P-](F)(F)(F)(F)F.OCCn1cc[n+]2[c]1[Ag-][c]1n(CCO)cc[n+]1Cc1cccc(n1)C[n+]1ccn(CCO)[c]1[Ag-][c]1n(CCO)cc[n+]1Cc1cccc(n1)C2 [Compound 105]
- Diameter of Inhibited Area [7]: 10 mm and 11.58 mm
- Diameter of Inhibited Area [8]: 12 mm and 10.25 mm
- Diameter of Inhibited Area [9]: 9 mm and 10.67 mm
- antimicrobial properties (Table 2 summary) [10]: comparable to silver nitrate
- antimicrobial activity compared with silver nitrate (Table 3 summary) [11]: better antimicrobial activity than silver nitrate
- solubility in water / aqueous media [6]: is not; also recorded: soluble in aqueous media

- solubility in water / aqueous media [6]: water soluble
Molecule: OCCN1C=CN(CN2C=CN(CCO)C2)C1 [Formula 13]

Molecule: OCC[n+]1ccn(Cc2cccc(Cn3cc[n+](CCO)c3)n2)c1.[Br-].[Br-] [Formula 19a]
- toxicity [12]: low toxicity
- clearance through the kidneys ([12]; mass spectroscopy of the urine): clears within two days

Molecule: CC(=O)[O][Ag][CH]1N(C)c2c(n(C)c(=O)n(C)c2=O)N1C (stereo not shown) [Formula 100]
- stability in air and light [2]: air stable
- antimicrobial activity [13]: effective antimicrobial activity

Molecule: CN1CN(CC(O)CO)c2c1n(C)c(=O)n(C)c2=O (stereo not shown) [Formula 201]
- LD50 [14]: > 2000 mg/kg

Molecule: CC(=O)[O][Ag][CH]1N(C)c2c(c(=O)n(C)c(=O)n2C)N1CC(O)CO (stereo not shown) [Formula 202]
- shelf life ([2]; room temperature): several months
- stable in solid form ([2]; solid form): a couple months
- stable in water by NMR ([2]; water): at least 7 days
- solubility [15]: 82 mg/mL
- loss of viability ([16]; 1 h of treatment at 5 μg/mL): ~5%
- loss of viability ([16]; 2 hours of treatment at 5 μg/mL): approximately 11%
- MIC [17]: 2 to 4 µg/mL

Molecule: silver nitrate [AgNO3, reference compound]
- growth / no growth [1, 21]: −
- growth / no growth [1, 22]: −
- growth / no growth [1, 23]: −
- growth / no growth [1, 24]: −
- growth / no growth [1, 25]: −
- growth / no growth [1, 26]: −
- growth / no growth [1, 27]: −
- growth / no growth [1, 28]: −
- growth / no growth [1, 29]: −
- growth / no growth [1, 30]: −
- Diameter of Inhibited Area [7, 31]: 11.38 mm
- Diameter of Inhibited Area [8, 31]: 11 mm
- Diameter of Inhibited Area [9, 31]: 10.88 mm
- growth(+) or no growth(−) [18, 32]: −
- growth(+) or no growth(−) ([18]; Day 1, supernatant x 1DF): +
- growth(+) or no growth(−) ([18]; Day 1, supernatant x 2DF): +
- growth(+) or no growth(−) ([18]; Day 1, supernatant x 3DF): +
- growth(+) or no growth(−) ([18]; Day 1, supernatant x 4DF): +
- growth(+) or no growth(−) [18, 33]: +
- growth / no growth [3, 21]: −
- growth / no growth [3, 22]: −
- growth / no growth [3, 23]: −
- growth / no growth [3, 24]: −
- growth / no growth [3, 25]: −
- growth / no growth [3, 26]: −
- growth / no growth [3, 27]: −
- growth / no growth [3, 28]: −
- growth / no growth [3, 29]: +
- growth / no growth [3, 30]: −
- growth(+) or no growth(−) [19, 32]: −
- growth(+) or no growth(−) ([19]; Day 1, supernatant x 1DF): +
- growth(+) or no growth(−) ([19]; Day 1, supernatant x 2DF): +
- growth(+) or no growth(−) ([19]; Day 1, supernatant x 3DF): +
- growth(+) or no growth(−) ([19]; Day 1, supernatant x 4DF): +
- growth(+) or no growth(−) [19, 33]: +
- growth(+) or no growth(−) ([20]; supernatant undiluted (Ag: 103 1186, 105 1125, AgN03 3176)): +
- growth(+) or no growth(−) ([20]; supernatant x 1DF): +
- growth(+) or no growth(−) ([20]; supernatant x 2DF): +
- growth(+) or no growth(−) ([20]; supernatant x 3DF): +
- growth(+) or no growth(−) ([20]; supernatant x 4DF): +
- growth / no growth [5, 21]: −
- growth / no growth [5, 22]: −
- growth / no growth [5, 23]: −
- growth / no growth [5, 24]: −
- growth / no growth [5, 25]: −
- growth / no growth [5, 26]: −
- growth / no growth [5, 27]: −
- growth / no growth [5, 28]: −
- growth / no growth [5, 29]: +
- growth / no growth [5, 30]: −
